The results in this text go back to patent US20200172483A1, “HETEROCYCLIC SMALL MOLECULE MODULATORS OF HUMAN STING” (Curadev Pharma Limited, priority 2017, published 2020).

One assay has as its target T1, WT/R232 STING protein (Homo sapiens, UniProt Q86WV6, H232R).
T1 construct: host or cells: HEK293T
The assay is described as follows: Luciferase reporter assay in HEK293T-hSTING-Luciferase cells (R232). The assay is classed as cell-based. The settings on record: 20 hr stimulation, EC50 range. Summed up:
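Clonal HEK293T cells stably expressing human STING R232 plus an ISRE/ISG54-driven secreted luciferase reporter, stimulated with compounds for 20 hr. Luciferase in supernatant read by luminescence; activity given as fold-induction over baseline.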

For another assay, the target named is T2, hSTING (H232) (Homo sapiens, UniProt Q86WV6).
T2 construct: host or cells: HEK293T
T2 sequence (Q86WV6 whole entry): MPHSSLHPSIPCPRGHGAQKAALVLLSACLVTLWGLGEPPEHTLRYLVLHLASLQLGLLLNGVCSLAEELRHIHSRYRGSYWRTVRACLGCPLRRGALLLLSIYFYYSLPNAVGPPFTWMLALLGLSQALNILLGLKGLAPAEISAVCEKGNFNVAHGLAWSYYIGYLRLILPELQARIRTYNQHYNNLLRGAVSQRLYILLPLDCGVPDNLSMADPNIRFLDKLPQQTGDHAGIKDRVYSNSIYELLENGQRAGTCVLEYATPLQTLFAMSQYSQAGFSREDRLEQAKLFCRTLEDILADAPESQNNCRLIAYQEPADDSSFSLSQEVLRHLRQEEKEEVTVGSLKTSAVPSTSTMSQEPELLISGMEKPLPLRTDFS
Briefly: Luciferase reporter assay in HEK293T-hSTING-Luciferase cells (H232/REF polymorph). In kind it is cell-based. Particulars: EC50 range. From the text:
(§1) • a) Stable STING expressing cells—Stable HEK293T STING-expressing cell lines were generated using plasmids purchased from Invivogen, CA, USA, that contain STING cDNA cloned into the pUNO-1 vector under hEF1-HTLV promoter and containing the Blasticidin selection cassette. The plasmids hSTING (R232), hSTING (H232), hSTING (HAQ) were directly procured from Invivogen while hSTING (AQ) and hSTING (Q) were derived from hSTING (HAQ) and hSTING (R232) plasmids respectively by using a PCR based site directed mutagenesis method. These vectors were individually transfected into HEK293T cells using Lipofectamine (Invitrogen) and transfected cells were selected under Blasticidin selection. These transfected cells were further subjected to clonal selection using the limiting dilution method to obtain clonally pure populations of HEK cells transfected with each of the above mentioned human STING variants. Only those clones were selected in which ligand independent activation of STING was minimal. • b) Stable Luciferase reporter gene expressing cells—Stable HEK293T Luciferase reporter gene expressing cell lines were generated using pCDNA4 plasmids under an IRF-inducible promoter. This promoter is comprised of five tandem interferon-stimulated response elements (ISRE) fused to an ISG54 minimal promoter. This vector was transfected into HEK293T cells using Lipofectamine (Invitrogen) and transfected cells were selected under Zeocin selection. These transfected cells were further subjected to clonal selection using the limiting dilution method to obtain clonally pure populations of HEK cells transfected the Luciferase reporter construct. Only those clones were selected in which ligand independent induction of luciferase was minimal.
(§2) 5×10^5 clonally selected HEK293T-hSTING-Luciferase cells were seeded in 384-well plates in growth medium and stimulated with novel compounds. After 20 hr of stimulation supernatant were removed and secretary reporter gene activity were measured using the Quanti-Luc detection system (Invivogen) on a Spectramax i3X luminometer.
(§3) The 5 major polymorphisms of human STING are shown in FIG. 1, with their prevalence in human populations indicated.

In another assay the target is T3, hSTING (HAQ) (Homo sapiens, UniProt Q86WV6, G230A/H232R/R293Q/R71H).
T3 construct: host or cells: HEK293T
T3 sequence (Q86WV6 whole entry R71H/G230A/H232R/R293Q): as the sequence (Q86WV6 whole entry) above, with R71H, G230A, H232R, R293Q counted along it
The assay is described as follows: Luciferase reporter assay in HEK293T-hSTING-Luciferase cells (HAQ polymorph). The settings on record: EC50 range. The assay is classed as cell-based.
Description: as §1, §2, §3

The subject of a further assay is IRF pathway. The assay is described as follows: Reporter gene expression assay for IRF axis in THP1-Dual cells (secreted Lucia luciferase). Particulars: Homo sapiens, THP1-Dual, 20 h, 20 hr stimulation, QUANTI-Luc, EC50 range, read-out: THP-IRF activity. The assay is classed as cell-based, human. The procedure:
(§4) THP1-Dual™ cells (Invivogen) were derived from the human THP-1 monocyte cell line by stable integration of two inducible reporter constructs. As a result, THP1-Dual™ cells allow the simultaneous study of the NF-κB pathway, by monitoring the activity of secreted SEAP, and the IRF pathway, by assessing the activity of a secreted luciferase (Lucia). […] THP1-Dual™ cells were seeded in 384-well plates in growth medium and stimulated with novel compounds. After 20 hr of stimulation supernatant were removed and reporter proteins were readily measured in the cell culture supernatant using QUANTI-Blue™ (Invivogen), a SEAP detection reagent, and QUANTI-Luc™ (Invivogen), a luciferase detection reagent on a Spectramax i3X luminometer. EC50 value ranges for exemplary compounds tested in the above assay are given.

Another assay concerns NF-κB pathway. Briefly: Reporter gene expression assay for NFκB axis in THP1-Dual cells (secreted SEAP). In kind it is cell-based, human. Particulars: Homo sapiens, THP1-Dual, 20 h, 20 hr stimulation, QUANTI-Blue SEAP, EC50 range, read-out: THP-NFKB activity. The procedure:
as §4

T1 sequence (Q86WV6 whole entry H232R): as the sequence (Q86WV6 whole entry) above, with H232R counted along it

Consider `Cc1cccc(CN2C(=O)C(C)(C)c3ccc(C(=O)NCc4c(F)cc(F)cc4F)cc32)c1` [Example 18, 3,3-dimethyl-1-(3-methylbenzyl)-2-oxo-N-(2,4,6-trifluorobenzyl)indoline-6-carboxamide], for which the EC50 on WT/R232 STING protein is at most 1 µM; on hSTING (H232), 1 to 10 µM; on hSTING (HAQ), 1 to 10 µM; in the assay with IRF pathway it was above 10 µM; with NF-κB pathway, 1 to 10 µM.
Turning to `CC1(C)C(=O)N(Cc2cccc(Cl)c2)c2cc(C(=O)NCc3c(F)cc(F)cc3F)ccc21` [Example 19, 1-(3-chlorobenzyl)-3,3-dimethyl-2-oxo-N-(2,4,6-trifluorobenzyl)indoline-6-carboxamide], the EC50 at WT/R232 STING protein was at most 1 µM; on hSTING (H232), 1 to 10 µM; on hSTING (HAQ), 1 to 10 µM; in the assay with IRF pathway it was above 10 µM; in the assay on NF-κB pathway, 1 to 10 µM.
Take `CC1(C)C(=O)N(Cc2ccc(F)cc2)c2cc(C(=O)NCc3c(F)cc(F)cc3F)ccc21` [Example 20, 1-(4-fluorobenzyl)-3,3-dimethyl-2-oxo-N-(2,4,6-trifluorobenzyl)indoline-6-carboxamide]: the EC50 at WT/R232 STING protein was at most 1 µM; at hSTING (H232), 1 to 10 µM; on hSTING (HAQ), at most 1 µM; in the assay on IRF pathway, 1 to 10 µM; in the assay on NF-κB pathway, 1 to 10 µM.
Take `CC1(C)C(=O)N(Cc2cc(F)cc(F)c2)c2cc(C(=O)NCc3cc4ccccc4o3)ccc21` [Example 23, N-(benzofuran-2-ylmethyl)-1-(3,5-difluorobenzyl)-3,3-dimethyl-2-oxoindoline-6-carboxamide]: the EC50 at WT/R232 STING protein was at most 1 µM; at hSTING (H232), 1 to 10 µM; on hSTING (HAQ) it was 1 to 10 µM; in the assay on IRF pathway, above 10 µM; in the assay with NF-κB pathway it was 1 to 10 µM.
For the molecule `CC1(C)C(=O)N(Cc2c(F)cccc2Cl)c2cc(C(=O)NCc3ccc(F)cc3)ccc21` [Example 25, 1-(2-chloro-6-fluorobenzyl)-N-(4-fluorobenzyl)-3,3-dimethyl-2-oxoindoline-6-carboxamide], the EC50 is at most 1 µM at WT/R232 STING protein; 1 to 10 µM at hSTING (H232); 1 to 10 µM at hSTING (HAQ); above 10 µM in the assay with IRF pathway; 1 to 10 µM in the assay on NF-κB pathway.
Consider `CC1(C)C(=O)N(Cc2c(F)cccc2Cl)c2cc(C(=O)NCc3ccc(F)cc3F)ccc21` [Example 26, 1-(2-chloro-6-fluorobenzyl)-N-(2,4-difluorobenzyl)-3,3-dimethyl-2-oxoindoline-6-carboxamide], for which the EC50 was at most 1 µM on WT/R232 STING protein; at most 1 µM on hSTING (H232); at most 1 µM on hSTING (HAQ); 1 to 10 µM in the assay with IRF pathway; 1 to 10 µM with NF-κB pathway.
On to `CC1(C)C(=O)N(Cc2c(F)cccc2Cl)c2cc(C(=O)NCc3c(F)cccc3F)ccc21` [Example 27, 1-(2-chloro-6-fluorobenzyl)-N-(2,6-difluorobenzyl)-3,3-dimethyl-2-oxoindoline-6-carboxamide], for which the EC50 is at most 1 µM on WT/R232 STING protein; 1 to 10 µM on hSTING (H232); at most 1 µM at hSTING (HAQ); 1 to 10 µM in the assay with IRF pathway; 1 to 10 µM in the assay with NF-κB pathway.
Take `CC1(C)C(=O)N(Cc2c(F)cccc2Cl)c2cc(C(=O)NCc3nc4ccccc4o3)ccc21` [Example 30, N-(benzo[d]oxazol-2-ylmethyl)-1-(2-chloro-6-fluorobenzyl)-3,3-dimethyl-2-oxoindoline-6-carboxamide]: the EC50 is 1 to 10 µM on WT/R232 STING protein; 1 to 10 µM at hSTING (H232); 1 to 10 µM on hSTING (HAQ); above 10 µM with IRF pathway; 1 to 10 µM with NF-κB pathway.
With `CC1(C)C(=O)N(Cc2cccc(F)c2F)c2cc(C(=O)NCc3c(F)cc(F)cc3F)ccc21` [Example 33, 1-(2,3-difluorobenzyl)-3,3-dimethyl-2-oxo-N-(2,4,6-trifluorobenzyl)indoline-6-carboxamide], the EC50 was at most 1 µM at WT/R232 STING protein; at most 1 µM on hSTING (H232); at most 1 µM on hSTING (HAQ); 1 to 10 µM in the assay with IRF pathway; 1 to 10 µM with NF-κB pathway.
